Laboratory results from paper PMC5317004 (Scientific Reports, 2017).
Values joined by “and” are separate entries in the source; they are usually repeats but may differ in a detail not shown here. Equal entries are not always repeated.

Tests used:
[1] = LUVs 6 mM, 5 minutes incubation plus 20-minutes ultracentrifugation; depending on the LUVs' lipid composition; cited from earlier work
[2] = tested on: chimeric α7-GluClβR; assay: IVM added after activation by ACh: kinetics and extent of current decline (whole-cell patch clamp); type: cell-based, chick nAChR α7 / C. elegans GluClβ
Protocol: Following a further wash (for a minute), the same cell was challenged again with a 5-μM-IVM solution (in 0.01% DMSO; red bar, arrow and trace). Recordings were performed at −60 mV. (B) Time constant of current decline (τd). Values of τd were determined by exponential fits to the declining phase of the currents using Eq. 3. […] Error bars correspond to SEM of N = 6 and N = 5 cells for recordings at −60 mV and −20 mV, respectively. Paired, two-tailed Student’s t-tests indicate that for not significant (“ns”) P > 0.3, and ** 0.001 < P < 0.005.
Figure 8 The inhibition of ACh-elicited currents by addition of IVM is irreversible. […] (B) Representative currents for the same experiment as in A, but with the exception of IVM (0.5 μM) addition after the ACh-elicited current reached to its peak (IP1). Inset, magnification of the indicated segment of the current trace. In both panels A and B, black bars above the current traces indicate ACh or IVM applications. […] Error bars correspond to SEM. Unpaired, two-tailed Student’s t-tests indicate *** P < 0.0001.
The declining phase of the currents was fitted with an exponential time course to give the time constant of current decline by using equation 3, […]
I is the current, IP is the peak of the current, IS is the steady state current, t is the time, and τ is the time constant of current decline. […]
Supplementary Materials and Methods
The structural mo del of the chi meric α7-GluClβR was built based on th e methodologies published previously1,2, and the sequence of the chimeric subunit is presented in […]
DNA construct and preparation of cells for electrophysiological experiments The cDNA encoding the α7-GluClβ chimeric subunit was generated as described previously3, and was cloned into a pcDNA3.1 vector.
Chinese hamster ovary cells (CHO-K1, ATCC via Biological Industries Israel, Beit Haemek Ltd.) were cultured as performed previously2 in Dulbecco 's Modified E agle Med iu m (DMEM) containing 10% fetal calf serum (Biological Industries Israel Beit Haemek Ltd.), 2 mM glutamax, 100 Units/ml penicillin G and 100 μg/ml streptomycin, and grown in 5% CO2 at 37°C under 90-95% hu midity . CHO cells were seeded on glass coverslips (13-mm diameter) placed in a 24-multiwell plate. For the expression of the α7-GluClβR, cells were transiently transfected with the pcDNA3.1 plasmid containing the receptor’s ORF (200-600 ng per well) using transit-LT1 transfection reagent (Mirus, USA), according to the manufacturer’s protocol. pIRES-CD8 plas mid (200 ng per well) was also added to enable visualization of the ex pressing cells by beads coated with anti-CD8 antibodies (Invitrogen). For the expression of GluClβ ho mo mers, we used the pcDNA3.1 plas mid containing the GluClβ-subunit ORF (600-1000 ng per well), pIRES-CD8 plas mid (200 ng per well) and th e X-tremeGENE HP DNA Transfection Reagent (Roche Life Science). Recordings were performed 48-72 hours following transfection.
Whole-cell patch clamp recordings
Recordings were performed in the aforementioned CHO cells, as previously described1,2. Whole-cell patch clamp experiments were performed with normal external solution (NES) contained (in millimolar): 140 NaCl, 2.8 KCl, 2 CaCl2, 2 MgCl2, 10 glucose and 10 HEPES, adjusted to pH 7.35 with NaOH (310 mOsM). The pipette solution contained […]
(in millimolar): 130 KCl, 4 MgCl2, 4 Na2ATP, 1 EGTA and 10 HEPES, adjusted to pH 7.35 with KOH (290 mOsM). The osmolarity of these solutions was maintained by adding sucrose.
The electrode resistance was 6-10 MΩ when filled with the pipette solution. External solutions were applied onto the cell by using the VC-77SP fast-step system (Warner Instruments, CT, USA) combined with N2 pressure of 3-4 psi to produce laminar flow of the external solution onto the patched cell. All measurements were performed at 25 °C. The currents w ere measured with an Axopatch 200B patch-clamp amplifier (Molecular Devices, Sunnyvale, CA) and a Digidata 1440A interface (Molecular Devices). […]

[3] = 30 μM ACh + 0.5 μM IVM, 9.6 sec, N = 10

CC[C@H](C)[C@H]1O[C@]2(CC[C@@H]1C)C[C@@H]1C[C@@H](C/C=C(\C)[C@@H](O[C@H]3C[C@H](OC)[C@@H](O[C@H]4C[C@H](OC)[C@@H](O)[C@H](C)O4)[C@H](C)O3)[C@@H](C)/C=C/C=C3\CO[C@@H]4[C@H](O)C(C)=C[C@@H](C(=O)O1)[C@]34O)O2 [IVM, Ivermectin]
depletion of IVM from the aqueous solution [1]: 50% and 70% | reduction of time constant of current decline (τd) ([2]; 5 μM IVM added after peak of 350 μM ACh response, −60 mV and −20 mV): more than two folds | τd1 amplitude percentage (%A) ([2]; 30 μM ACh + 0.5 μM IVM): 55 ± 10% | τd2 amplitude percentage (%A) ([2]; 30 μM ACh + 0.5 μM IVM): 45 ± 10% | τd1, time constant of current decline [2, 3]: 3370 ± 318 ms | τd2, time constant of current decline [2, 3]: 987 ± 120 ms | time between the start of application and the onset of effect ([2]; six experiments as in Fig. 5A, 350 μM ACh, 5 μM IVM): 132 ± 24 milliseconds
